Measurements from patent US6723897B2, “Methods for controlling gibberellin levels” (Monsanto Technology, LLC, priority 1998, dated 2004).

Legend:
[1] = Half-lives of 14C-labelled GA compounds in planta; conditions: for Half-life (days) in planta: ^14C-labelled compound on seed of Asgrow 3237 soybeans
Description: ^14C-radiolabelled compounds are obtained from Lew Mander (Australian National University). ^14C-GA3 is dissolved in water:ethanol, 80:20, v/v; ^14C-GA9 and ^14C-GA12 are dissolved in 100% ethanol. Seeds of Asgrow 3237 soybeans are treated separately with solutions of each of the ^14C-radiolabelled compounds (1.7-6.8 μg; 10-40 ppm; 111,000-2,000,000 dpm/seed) by placing one to four μl of the dosing solution directly on the seed coat (^14C-GA3, GA9, and GA12), or on the hilum portion of the seed (^14C-GA3). After evaporation of the carrier solvent (approx. one hour), the treated seed is planted in containers containing approximately 30 gm of Metromix-350, and transferred to a growth chamber. Plants are grown under a 12 hour light/12 hour dark regime at 92° F. (33° C.)and 75% humidity. The pattern of uptake and translocation of ^14C-radioactivity in treated seed is monitored up to 12 days past initial treatment. For most experiments, three replicate plants are harvested at one hour after treatment, one day after treatment (DAT), two DAT, three DAT, six or seven DAT, and 12 DAT. […] The level of ^14C-radioactivity in different plant parts is determined by extraction of plant tissues with aqueous methanol and scintillation counting. The extent of metabolism of the ^14C-labelled GA compounds in planta is determined by HPLC analysis of plant extracts. […]
The general extraction procedure consisted of blending the plant parts in a high speed polytron tissue homogenizer for 1-5 minutes with 10-20 ml of ice-cold methanol:water, 80:20, v/v, followed by vacuum filtration through a Whatman glass fiber filter. The filter cake is re-extracted as necessary using the procedure described above until an insignificant amount of radioactivity is removed. Prior to combining the extracts from each sample, aliquots are weighed and analyzed by liquid scintillation counting (LSC) to determine the amount of extracted radioactivity in each extract. Aliquots of the air-dried filter cakes are combusted and analyzed by LSC in order to determine the amount of non-extracted radioactivity. […]

[2] = test system: wild-type soybeans (line A3237); assay: Summary of first two greenhouse experiments, elongation of wild-type soybeans
Description: Compounds are first prepared as 25 mg/ml solutions in ethanol as described above, and then diluted into 40 ml of water to prepare the final 0.25 mg/ml treatment solutions. Visual observations on solubilities (milky, clear, etc.) of the treatment solutions are noted. The treatment solutions are divided into two 20 ml portions, each in 50 ml plastic centrifuge tubes. In addition to treating seeds with solutions containing the test compounds, untreated seeds and seeds imbibed in ethanol-water solution (300 μl ethanol in 30 mls of water) are also included in this experiment as controls. In the latter case, 20 seeds are imbibed in 30 mls of solution for six hours.
Two soybean varieties are selected for testing: constitutively GA-deficient transgenic dwarf soybean line 719 (plasmid pMON29801, constitutive FMV promoter/asCPScc; which is a mixture of 719−2 and 719+17), and A3237, the wild-type parent material. […] After imbibition, seeds are removed from the test tubes, placed on wax paper to dry, and planted in bread pans containing farm soil amended with fertilizer at 20 seeds/pan. Seeds are covered with 0.5″ of vermiculite. Pans are transferred to the greenhouse, which had day/night temperatures of 86/68° F. (30/20° C.), and subirrigated. Illumination is at a light intensity of 300-400 μmolm^−2s^−1 photosynthetic photon flux; 16 hours light/8 hours dark. Subsequent waterings are also through sub-irrigation until the test is terminated three weeks later. Observations included the number of dwarf, intermediate, and tall plants; plant height; uniformity of rescue; and any visual effects.
All compounds are tested at final concentrations of 0.25, 0.025, and 0.0025 mg/ml except for GA9, which is tested at 0.125, 0.0125, and 0.00125 mg/ml. (The compounds are tested in Experiment I at only one concentration, i.e., 0.25 mg/ml). Test tubes contained […] of ethanol solution per tube. Final volumes are made up to 30 ml with deionized water. After shaking, the treatment solutions (15 ml each) are transferred to each of two 50 ml test tubes. Treatments 1 to 27 are performed on wild-type line A3237; treatments 28 to 54 are performed on constitutively GA-deficient transgenic dwarf soybean line 719 (a mixture of 719−2 and 719+17). Twenty seeds are used in each treatment. Dry seed, ethanol/water-imbibed seed (1% ethanol in water, v/v), and water-imbibed seeds are included as controls. Seeds are imbibed for 6 hours in the test solutions, then planted in bread pans containing Metromix 350 (The Scotts Company, Marysville, Ohio), and covered with 0.5″ Metro-mix. Covered pans are transferred to the greenhouse and subirrigated. Illumination is at a light intensity of 300-400 μmolm^−2s^−1 photosynthetic photon flux; 16 hours light/8 hours dark. Subsequent waterings are also through sub-irrigation until the test is terminated three weeks later. Observations included the number of dwarf, intermediate, and tall plants; plant height; uniformity of rescue; and any visual effects. Digital photographs are also taken.

[3] = test system: AX5/antisense CPScc soybean line 234 (R3); assay: Hilum seed treatment of epicotyl-intensive GA-deficient soybean, height (FIG. 43); type: in vivo, Glycine max; conditions: 10 DAP; for restoration of height of line 234 soybeans: hypocotyl and epicotyl elongation, hypocotyl to epicotyl ratio not maintained; for response of line 234 height: seed treatment rates between 0.1 and 1 μg/seed
Description: The purpose of this study is to evaluate the ability of four GA compounds, i.e., GA9, GA5, GA3-3-acetate, and GA12, to restore normal growth in AX5/antisense CPScc soybean lines when applied as a seed treatment.
Line 46 plants are R2; Line 234 plants are R3.
The GA compounds are dissolved in ethanol and applied to the hilum of dry seeds as not more than 10 μl droplets with a syringe. If multiple applications are made to seeds, the previous application is allowed to dry before a subsequent application is made.
Seeds are sown 1 inch deep in commercial potting soil (Metromix 200) in 4-inch plastic pots and placed in a greenhouse set for 12 hours artificial light and a temperature regime of 85° F. (29° C.) day and 75° F. night (24° C.). Pots are watered as necessary by overhead hand watering. Hypocotyl and epicotyl measurements are made for each plant at various stages of plant growth.
The lower dashed horizontal line represents the total height of untreated AX5 line 234 soybeans. The upper dashed horizontal line represents the total height of untreated wild-type A4922 soybeans. Measurements are made 10 days after planting.

[4] = Particulate material present in solutions after mixing; type: physicochemical; conditions: for Particulate material present, 100X Diln w/water: 0.25 mg/ml compound in water; for solubility in water during imbibition: 0.25 mg/ml treatment solutions
Description: Each of the compounds noted above is weighed to the nearest 0.1 mg in a pre-tarred 1.5-ml polypropylene vial with a screw-top lid. Absolute ethanol is added to the weighed powder to prepare a 25 mg/ml solution. Solutions are thoroughly mixed using a vortex mixer. A stainless steel spatula is used to crush any particulate material remaining after extensive mixing. Vials are left overnight at room temperature, and then remixed to form the concentrated ethanol stock solutions. The presence of undissolved material is noted throughout this procedure.

[5] = 0.0025 mg/ml solution (ethanol-water)
[6] = 0.025 mg/ml solution (ethanol-water)
[7] = 0.25 mg/ml solution (ethanol-water)

## C=C1C[C@]23C[C@@]1(O)CC[C@H]2[C@@]12C=C[C@H](O)[C@@](C)(C(=O)O1)[C@H]2[C@@H]3C(=O)O [GA3, gibberellic acid]
[1]; Asgrow 3237, soybean (Glycine max), in vivo
  half-life: 2 to 3 days
[2]; [5]
  Elongation of wild-type soybeans: +
[2]; [6]
  Elongation of wild-type soybeans: +
[2]; [7]
  Elongation of wild-type soybeans: +
[3]
  restoration of height of line 234 soybeans: restore normal height to line 234 soybeans
  response of line 234 height: generally similar response

## C=C1C[C@]23C[C@@]1(O)CC[C@H]2[C@@]12C=C[C@H](OC(C)=O)[C@@](C)(C(=O)O1)[C@H]2[C@@H]3C(=O)O [GA3-3-acetate]
[3]
  restoration of height of line 234 soybeans: restore normal height to line 234 soybeans
  response of line 234 height: generally similar response

## C=C1C[C@]23C[C@@]1(O)CC[C@H]2[C@@]12CC=C[C@@](C)(C(=O)O1)[C@H]2[C@@H]3C(=O)O [GA5]
[2]; [5]
  Elongation of wild-type soybeans: 0
[2]; [6]
  Elongation of wild-type soybeans: 0
[2]; [7]
  Elongation of wild-type soybeans: +
[3]
  restoration of height of line 234 soybeans: restore normal height to line 234 soybeans
  response of line 234 height: generally similar response

## C=C1C[C@]23C[C@H]1CC[C@H]2[C@@]12CCC[C@@](C)(C(=O)O1)[C@H]2[C@@H]3C(=O)O [GA9]
[1]
  Half-life (days) in planta: <1 days
[4]
  Particulate material present, 100X Diln w/water: YES
  solubility in water during imbibition: less soluble in water during imbibition
[2]; 0.00125 mg/ml solution (ethanol-water)
  Elongation of wild-type soybeans: −
[2]; 0.0125 mg/ml solution (ethanol-water)
  Elongation of wild-type soybeans: 0
[2]; 0.125 mg/ml solution (ethanol-water)
  Elongation of wild-type soybeans: 0
[2]; [7]
  Elongation of wild-type soybeans: +
[3]
  activity relative to GA3, GA3-3-acetate and GA5: approximately 10 times less active
  restoration of height of line 234 soybeans: restore normal height to line 234 soybeans

## C=C1C[C@]23C[C@H]1CC[C@H]2[C@]1(C)CCC[C@@](C)(C(=O)O)[C@H]1[C@@H]3C(=O)O [GA12]
[1]
  Half-life (days) in planta: <1 days
[4]
  solubility in water during imbibition: less soluble in water during imbibition
[4]; 25 mg/ml in absolute ethanol
  Particulate material present, Initial Mixing: YES
[4]; 25 mg/ml in ethanol, overnight at room temperature, remixed
  Particulate material present, O/N Incubation: YES
[2]; [5]
  Elongation of wild-type soybeans: 0
[2]; [6]
  Elongation of wild-type soybeans: −
[2]; [7]
  Elongation of wild-type soybeans: −

## C=C1C[C@@]23CC[C@H]4[C@@](C)(CCC[C@@]4(C)C(=O)O)[C@@H]2CC[C@@H]1C3 [kaurenoic acid]
[4]
  Particulate material present, 100X Diln w/water: YES
  solubility in water during imbibition: less soluble in water during imbibition
[2]; [5]
  Elongation of wild-type soybeans: 0
[2]; [6]
  Elongation of wild-type soybeans: 0
[2]; [7]
  Elongation of wild-type soybeans: −
